Results reported in US20080213743A1, “Method for adjusting sedimentation rates” (priority 2007, published 2008).

System: bone marrow aspirate
Assay: Centrifugal fractionation of bone marrow aspirate with the whole-blood platelet rich plasma protocol; analysis of ten milliliter concentrate sample
Type: cell-based
Details: 60 mls bone marrow aspirate collected into heparin, 8-10 mls of ACD added or heparin alone, two centrifugations
Description: In one specific example of the invention, 60 mls of bone marrow aspirate is collected into a bag or syringe having heparin as the anticoagulant. A bag is preferred to be able to inspect the collected marrow. Then, 8-10 mls of ACD are added to the collected aspirate to adjust the sedimentation rate of the components, particularly the red blood cells. The aspirate mixture is then placed in the first chamber of a two-chamber processing unit and subjected to centrifugation according to a known protocol designed to fractionate whole blood for the purpose of making platelet rich plasma as described in U.S. Pat. No. 6,398,972. The supernatant is then decanted to the second chamber and again subjected to centrifugation according to the said process designed to separate platelets to make platelet rich plasma. Supernatant from the second centrifugation is withdrawn to leave a ten milliliter concentrate sample remaining in the chamber. […] In contrast, when same process is followed with heparin alone, the sample is 3% Hct with a TNC of 32.4×10^3/μl.

heparin
Hct of concentrate sample: 3 % Hct
total nucleated cell count (TNC) of concentrate sample: 32400 µL⁻¹
